Test results as given in patent US11078170B2 (Assembly Biosciences, Inc., priority 2017, dated 2021).

System: HBV viral production from HepAD38 cells
Test: Activity of test compounds on viral production from HepAD38 cells (viral load by qPCR of HBV core sequence in supernatant)
Format: cell-based
Conditions: Hepatitis B virus, 120 h, 5 days incubation, HBV DNA in supernatant by qPCR, top concentration 10 μM, read-out: Viral Load EC50 Activity range
Procedure, shortened: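 EC50 and CC50 come from four-parameter fits of supernatant viral load and CellTiter-Glo viability, respectively. Viral load was measured by core-region TaqMan qPCR against HBV DNA standards and compared with DMSO controls. Tet-free HepAD38 cells (50,000/well, 2% FBS) were exposed to compound, highest 10 μM, for 5 days at 37° C.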

Row | Structure (SMILES) | EC50 [nM]
1 | CN1[C@@H](C(=O)Nc2ccc(F)c(Cl)c2)C[C@@H](c2cc(-c3cncnc3)cs2)NS1(=O)=O [HBV-CSU-290-ISO-II, Cis-N-(3-chloro-4-fluorophenyl)-2-methyl-5-(4-(pyrimidin-5-yl)thiophen-2-yl)-1,2,6-thiadiazinane-3-carboxamide 1,1-dioxide] | 1000 to 5000
2 | CCn1cc(-c2ccc([C@H]3C[C@@H](C(=O)Nc4ccc(F)c(Cl)c4)N(C)S(=O)(=O)N3)s2)cn1 [HBV-CSU-291-ISO-I, Cis-N-(3-chloro-4-fluorophenyl)-5-(5-(1-ethyl-1H-pyrazol-4-yl)thiophen-2-yl)-2-methyl-1,2,6-thiadiazinane-3-carboxamide 1,1-dioxide] | < 1000
3 | CCn1cc(-c2ccc([C@@H]3C[C@H](C(=O)Nc4ccc(F)c(Cl)c4)N(C)S(=O)(=O)N3)s2)cn1 [HBV-CSU-291-ISO-II, Cis-N-(3-chloro-4-fluorophenyl)-5-(5-(1-ethyl-1H-pyrazol-4-yl)thiophen-2-yl)-2-methyl-1,2,6-thiadiazinane-3-carboxamide 1,1-dioxide] | > 5000
4 | CC(C)n1cc(-c2ccc([C@H]3C[C@@H](C(=O)Nc4ccc(F)c(Cl)c4)N(C)S(=O)(=O)N3)s2)cn1 [HBV-CSU-292-ISO-I, Cis-N-(3-chloro-4-fluorophenyl)-5-(5-(1-isopropyl-1H-pyrazol-4-yl)thiophen-2-yl)-2-methyl-1,2,6-thiadiazinane-3-carboxamide 1,1-dioxide] | < 1000
5 | CC(C)n1cc(-c2ccc([C@@H]3C[C@H](C(=O)Nc4ccc(F)c(Cl)c4)N(C)S(=O)(=O)N3)s2)cn1 [HBV-CSU-292-ISO-II, Cis-N-(3-chloro-4-fluorophenyl)-5-(5-(1-isopropyl-1H-pyrazol-4-yl)thiophen-2-yl)-2-methyl-1,2,6-thiadiazinane-3-carboxamide 1,1-dioxide] | 1000 to 5000
6 | CN1[C@H](C(=O)Nc2ccc(F)c(Cl)c2)C[C@H](c2ccc(-c3cnn(CCO)c3)s2)NS1(=O)=O [HBV-CSU-293-ISO-I, Cis-N-(3-chloro-4-fluorophenyl)-5-(5-(1-(2-hydroxyethyl)-1H-pyrazol-4-yl)thiophen-2-yl)-2-methyl-1,2,6-thiadiazinane-3-carboxamide 1,1-dioxide] | < 1000
7 | CN1[C@@H](C(=O)Nc2ccc(F)c(Cl)c2)C[C@@H](c2ccc(-c3cnn(CCO)c3)s2)NS1(=O)=O [HBV-CSU-293-ISO-II, Cis-N-(3-chloro-4-fluorophenyl)-5-(5-(1-(2-hydroxyethyl)-1H-pyrazol-4-yl)thiophen-2-yl)-2-methyl-1,2,6-thiadiazinane-3-carboxamide 1,1-dioxide] | > 5000
8 | CCn1cc(-c2csc([C@H]3C[C@@H](C(=O)Nc4ccc(F)c(Cl)c4)N(C)S(=O)(=O)N3)c2)cn1 [HBV-CSU-294-ISO-I, Cis-N-(3-chloro-4-fluorophenyl)-5-(4-(1-ethyl-1H-pyrazol-4-yl)thiophen-2-yl)-2-methyl-1,2,6-thiadiazinane-3-carboxamide 1,1-dioxide] | < 1000
9 | CCn1cc(-c2csc([C@@H]3C[C@H](C(=O)Nc4ccc(F)c(Cl)c4)N(C)S(=O)(=O)N3)c2)cn1 [HBV-CSU-294-ISO-II, Cis-N-(3-chloro-4-fluorophenyl)-5-(4-(1-ethyl-1H-pyrazol-4-yl)thiophen-2-yl)-2-methyl-1,2,6-thiadiazinane-3-carboxamide 1,1-dioxide] | 1000 to 5000
10 | CC(C)n1cc(-c2csc([C@H]3C[C@@H](C(=O)Nc4ccc(F)c(Cl)c4)N(C)S(=O)(=O)N3)c2)cn1 [HBV-CSU-295-ISO-I, Cis-N-(3-chloro-4-fluorophenyl)-5-(4-(1-isopropyl-1H-pyrazol-4-yl)thiophen-2-yl)-2-methyl-1,2,6-thiadiazinane-3-carboxamide 1,1-dioxide] | < 1000
11 | CC(C)n1cc(-c2csc([C@@H]3C[C@H](C(=O)Nc4ccc(F)c(Cl)c4)N(C)S(=O)(=O)N3)c2)cn1 [HBV-CSU-295-ISO-II, Cis-N-(3-chloro-4-fluorophenyl)-5-(4-(1-isopropyl-1H-pyrazol-4-yl)thiophen-2-yl)-2-methyl-1,2,6-thiadiazinane-3-carboxamide 1,1-dioxide] | 1000 to 5000
12 | CN1[C@H](C(=O)Nc2ccc(F)c(Cl)c2)C[C@H](c2cc(-c3cnn(CCO)c3)cs2)NS1(=O)=O [HBV-CSU-296-ISO-I, Cis-N-(3-chloro-4-fluorophenyl)-5-(4-(1-(2-hydroxyethyl)-1H-pyrazol-4-yl)thiophen-2-yl)-2-methyl-1,2,6-thiadiazinane-3-carboxamide 1,1-dioxide] | < 1000
13 | CN1[C@@H](C(=O)Nc2ccc(F)c(Cl)c2)C[C@@H](c2cc(-c3cnn(CCO)c3)cs2)NS1(=O)=O [HBV-CSU-296-ISO-II, Cis-N-(3-chloro-4-fluorophenyl)-5-(4-(1-(2-hydroxyethyl)-1H-pyrazol-4-yl)thiophen-2-yl)-2-methyl-1,2,6-thiadiazinane-3-carboxamide 1,1-dioxide] | 1000 to 5000
14 | Cc1cc([C@@H]2C[C@H](C(=O)Nc3ccc(F)c(Cl)c3)N(C)S(=O)(=O)N2)sc1-c1cnn(C)c1 [HBV-CSU-300-ISO-II, Cis-N-(3-Chloro-4-fluorophenyl)-5-(4-methyl-5-(1-methyl-1H-pyrazol-4-yl)thiophen-2-yl)-2-methyl-1,2,6-thiadiazinane-3-carboxamide 1,1-dioxide] | > 5000
15 | CN1[C@H](C(=O)Nc2ccc(F)c(Cl)c2)C[C@H](c2cc(Cl)c(-c3cnn(C)c3)s2)NS1(=O)=O [HBV-CSU-302-ISO-I, Cis-N-(3-Chloro-4-fluorophenyl)-5-(4-chloro-5-(1-methyl-1H-pyrazol-4-yl)thiophen-2-yl)-2-methyl-1,2,6-thiadiazinane-3-carboxamide 1,1-dioxide] | < 1000
16 | CN1[C@@H](C(=O)Nc2ccc(F)c(Cl)c2)C[C@@H](c2cc(Cl)c(-c3cnn(C)c3)s2)NS1(=O)=O [HBV-CSU-302-ISO-II, Cis-N-(3-Chloro-4-fluorophenyl)-5-(4-chloro-5-(1-methyl-1H-pyrazol-4-yl)thiophen-2-yl)-2-methyl-1,2,6-thiadiazinane-3-carboxamide 1,1-dioxide] | > 5000
17 | Cc1sc([C@H]2C[C@@H](C(=O)Nc3ccc(F)c(Cl)c3)N(C)S(=O)(=O)N2)cc1-c1cnn(C)c1 [HBV-CSU-304-ISO-I, Cis-N-(3-Chloro-4-fluorophenyl)-2-methyl-5-(5-methyl-4-(1-methyl-1H-pyrazol-4-yl)thiophen-2-yl)-1,2,6-thiadiazinane-3-carboxamide 1,1-dioxide] | < 1000
18 | Cc1sc([C@@H]2C[C@H](C(=O)Nc3ccc(F)c(Cl)c3)N(C)S(=O)(=O)N2)cc1-c1cnn(C)c1 [HBV-CSU-304-ISO-II, Cis-N-(3-Chloro-4-fluorophenyl)-2-methyl-5-(5-methyl-4-(1-methyl-1H-pyrazol-4-yl)thiophen-2-yl)-1,2,6-thiadiazinane-3-carboxamide 1,1-dioxide] | > 5000
19 | CCc1sc([C@H]2C[C@@H](C(=O)Nc3ccc(F)c(Cl)c3)N(C)S(=O)(=O)N2)cc1-c1cnn(C)c1 [HBV-CSU-305-ISO-I, Cis-N-(3-Chloro-4-fluorophenyl)-5-(5-ethyl-4-(1-methyl-1H-pyrazol-4-yl)thiophen-2-yl)-2-methyl-1,2,6-thiadiazinane-3-carboxamide 1,1-dioxide] | < 1000
20 | CCc1sc([C@@H]2C[C@H](C(=O)Nc3ccc(F)c(Cl)c3)N(C)S(=O)(=O)N2)cc1-c1cnn(C)c1 [HBV-CSU-305-ISO-II, Cis-N-(3-Chloro-4-fluorophenyl)-5-(5-ethyl-4-(1-methyl-1H-pyrazol-4-yl)thiophen-2-yl)-2-methyl-1,2,6-thiadiazinane-3-carboxamide 1,1-dioxide] | 1000 to 5000
21 | CN1[C@H](C(=O)Nc2ccc(F)c(Cl)c2)C[C@H](c2cc(-c3cnn(C)c3)c(Cl)s2)NS1(=O)=O [HBV-CSU-306-ISO-I, Cis-5-(5-chloro-4-(1-methyl-1-pyrazol-4-yl)thiophen-2-yl)-N-(3-chloro-4-fluorophenyl)-2-methyl-1,2,6-thiadiazinane-3-carboxamide 1,1-dioxide] | < 1000
22 | CN1[C@@H](C(=O)Nc2ccc(F)c(Cl)c2)C[C@@H](c2cc(-c3cnn(C)c3)c(Cl)s2)NS1(=O)=O [HBV-CSU-306-ISO-II, Cis-5-(5-chloro-4-(1-methyl-1-pyrazol-4-yl)thiophen-2-yl)-N-(3-chloro-4-fluorophenyl)-2-methyl-1,2,6-thiadiazinane-3-carboxamide 1,1-dioxide] | > 5000
23 | Cc1c(-c2ccc([C@H]3C[C@@H](C(=O)Nc4ccc(F)c(Cl)c4)N(C)S(=O)(=O)N3)s2)cnn1C [HBV-CSU-312-ISO-I, Cis-N-(3-chloro-4-fluorophenyl)-5-(5-(1,5-dimethyl-1H-pyrazol-4-yl)thiophen-2-yl)-2-methyl-1,2,6-thiadiazinane-3-carboxamide 1,1-dioxide] | < 1000
24 | Cc1c(-c2ccc([C@@H]3C[C@H](C(=O)Nc4ccc(F)c(Cl)c4)N(C)S(=O)(=O)N3)s2)cnn1C [HBV-CSU-312-ISO-II, Cis-N-(3-chloro-4-fluorophenyl)-5-(5-(1,5-dimethyl-1H-pyrazol-4-yl)thiophen-2-yl)-2-methyl-1,2,6-thiadiazinane-3-carboxamide 1,1-dioxide] | 1000 to 5000
25 | Cc1nn(C)cc1-c1ccc([C@H]2C[C@@H](C(=O)Nc3ccc(F)c(Cl)c3)N(C)S(=O)(=O)N2)s1 [HBV-CSU-313-ISO-I, Cis-N-(3-chloro-4-fluorophenyl)-5-(5-(1,3-dimethyl-1H-pyrazol-4-yl)thiophen-2-yl)-2-methyl-1,2,6-thiadiazinane-3-carboxamide 1,1-dioxide] | < 1000
26 | Cc1nn(C)cc1-c1ccc([C@@H]2C[C@H](C(=O)Nc3ccc(F)c(Cl)c3)N(C)S(=O)(=O)N2)s1 [HBV-CSU-313-ISO-II, Cis-N-(3-chloro-4-fluorophenyl)-5-(5-(1,3-dimethyl-1H-pyrazol-4-yl)thiophen-2-yl)-2-methyl-1,2,6-thiadiazinane-3-carboxamide 1,1-dioxide] | 1000 to 5000
